Experimental data from PMC9780703, “Unconventional interactions of the TRPV4 ion channel with beta-adrenergic receptor ligands” (Life Science Alliance, 2022).
pKd: −log10 of the molar value. Structures can show the parent of a compound that is named as a salt. Where two headings read alike, the source gives them in different places.

Tests used:
Type in all cases: cell-based
TRPV4 [1] = target: T1, TRPV4 (Homo sapiens, UniProt Q9HBA0); assay: outside-out patch clamp of HEK293 cells expressing hTRPV4, % inhibition of GSK-activated current at […]
T1 construct: full-length wild type, transiently transfected HEK293, outside-out patches
T1 sequence (Q9HBA0 whole entry): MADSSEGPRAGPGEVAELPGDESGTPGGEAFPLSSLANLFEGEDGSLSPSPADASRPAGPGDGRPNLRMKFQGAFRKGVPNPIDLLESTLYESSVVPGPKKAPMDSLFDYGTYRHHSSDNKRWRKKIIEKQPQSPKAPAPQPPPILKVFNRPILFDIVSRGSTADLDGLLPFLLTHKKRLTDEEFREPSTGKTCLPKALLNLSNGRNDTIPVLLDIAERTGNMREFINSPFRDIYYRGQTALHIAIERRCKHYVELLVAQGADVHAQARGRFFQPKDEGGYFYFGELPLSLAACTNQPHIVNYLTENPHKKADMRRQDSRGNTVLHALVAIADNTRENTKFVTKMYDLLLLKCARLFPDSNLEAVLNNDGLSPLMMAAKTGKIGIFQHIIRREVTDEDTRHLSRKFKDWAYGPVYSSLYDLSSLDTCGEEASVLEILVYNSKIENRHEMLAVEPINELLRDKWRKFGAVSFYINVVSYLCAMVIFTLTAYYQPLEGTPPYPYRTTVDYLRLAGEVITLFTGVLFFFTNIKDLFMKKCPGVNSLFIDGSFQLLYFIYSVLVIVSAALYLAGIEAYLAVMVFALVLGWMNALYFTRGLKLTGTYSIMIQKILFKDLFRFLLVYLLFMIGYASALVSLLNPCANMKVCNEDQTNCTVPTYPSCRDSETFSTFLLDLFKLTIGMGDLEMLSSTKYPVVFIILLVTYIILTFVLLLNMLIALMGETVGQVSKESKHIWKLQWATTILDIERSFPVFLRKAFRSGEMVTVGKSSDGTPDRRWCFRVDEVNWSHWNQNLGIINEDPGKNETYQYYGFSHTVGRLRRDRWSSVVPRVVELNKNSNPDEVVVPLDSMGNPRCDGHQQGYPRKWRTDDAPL

TRPV4 [2] = target: T1, TRPV4; assay: as above; remark: listed apart in the source
TRPV4 [3] = target: T1, TRPV4; assay: as above; remark: listed apart in the source
TRPV4 [4] = target: T1, TRPV4; assay: outside-out patch clamp of HEK293 cells expressing hTRPV4, activation dose-response (KD from Hill fit)
TRPV4 [5] = target: T1, TRPV4; assay: outside-out patch clamp of HEK293 cells expressing hTRPV4, % inhibition of GSK-activated current at […]; remark: listed apart in the source
TRPV4 [6] = target: T1, TRPV4; assay: outside-out patch clamp of HEK293 cells expressing hTRPV4, inhibition of GSK-activated currents, dose-response (apparent KD from Hill fit)
TRPV4 [7] = target: T1, TRPV4; assay: outside-out patch clamp of HEK293 cells expressing hTRPV4, % inhibition of GSK-activated current at […]; remark: listed apart in the source
TRPV4 [8] = target: T1, TRPV4; assay: outside-out patch clamp of HEK293 cells expressing hTRPV4, dose-response, single-channel recordings and site-directed mutagenesis (apparent KD from Hill fit)

Q: How did the inhibition at 500 µM (TRPV4 [1]) turn out when `CC(C)(C)NC[C@H](O)c1ccc(O)c(CO)c1` [levalbuterol] was run?
A: 42.6%

Q: `CC(C)NCC(O)c1ccc(O)c(O)c1` (centres unmarked) [isoprenaline, 1-[3′,4′-dihydroxyphenyl]-2-isopropylaminoethanol hydrochloride] was tested. Which inhibition at 500 µM (TRPV4 [2]) did it give?
A: 51.6%

Q: Which inhibition at 500 µM (TRPV4 [3]) does the source give for `CC(C)(C)NCC(O)c1cc(Cl)c(N)c(Cl)c1` (stereo not drawn) [clenbuterol, 4-amino-α-[t-butylaminomethyl]-3,5-dichlorobenzyl alcohol hydrochloride] here?
A: 71.7%

Q: How did the pKd (TRPV4 [4]) turn out when `CC(C)C[C@H](NC(=O)c1cc2ccccc2s1)C(=O)N1CCN(C(=O)[C@H](CO)NS(=O)(=O)c2ccc(Cl)cc2Cl)CC1` [GSK, GSK1016790A] was run?
A: 7.00

Q: `CC(C)(C)NCC(O)c1cc(O)cc(O)c1` (centres unmarked) [terbutaline, 5-[2-[(1,1-dimethylethyl)amino]-1-hydroxyethyl]-1,3-benzenediol hemisulfate salt] was tested. Which inhibition at 500 µM (TRPV4 [5]) did it give?
A: 54.4%

Q: How did the pKd (TRPV4 [6]) turn out when `Cc1ccc(OC[C@H](O)[C@@H](C)NC(C)C)c2c1CCC2` (relative stereo) [ICI, [2R,3R]-rel-3-isopropylamino-1-[7-methylindan-4-yloxy]-butan-2-ol hydrochloride] was run?
A: 5.41

Q: With `CC(C)NCC(O)c1cc(O)cc(O)c1` (stereo not drawn) [metaproterenol, α-[(isopropylamino)methyl]-3,5-dihydroxybenzyl alcohol hemisulfate salt] as the compound, how does the inhibition at 500 µM (TRPV4 [7]) read?
A: 51.7%

Q: `CC(C)(C)NCC(O)c1ccc(O)c(CO)c1` (racemic) [salbutamol, α1-[(tert-butylamino)methyl]-4-hydroxy-1,3-benzenedimethanol hemisulfate salt] was tested. Which pKd (TRPV4 [8]) did it give?
A: 4.09
